{"source": "paper PMC2882596", "about": "(Journal of the American Chemical Society, 2010)", "key": {"Bacillus subtilus 168": {"system": "Bacillus subtilus 168", "assay": "MIC, serial dilution liquid culture, overnight in 96-well plates", "assay_type": "cell-based, Bacillus subtilis", "conditions": "wild type scaffold variants, equivalent potency"}, "Staph aureus strains": {"system": "Staph aureus strains", "assay": "Antibiotic potency of wild type thiocillin variants", "assay_type": "cell-based, Staphylococcus aureus", "conditions": "wild type scaffold variants, equivalent potency"}}, "data": [{"substance": "Micrococcin P1", "values": [{"measurement": "antibiotic potency against B subtilis", "setting": "Bacillus subtilus 168", "result": "submicromolar"}, {"measurement": "antibiotic potency against Staph aureus strains", "setting": "Staph aureus strains", "result": "submicromolar"}]}, {"substance": "Thiocillin I", "values": [{"measurement": "antibiotic potency against B subtilis", "setting": "Bacillus subtilus 168", "result": "submicromolar"}, {"measurement": "antibiotic potency against Staph aureus strains", "setting": "Staph aureus strains", "result": "submicromolar"}]}, {"substance": "Micrococcin P2", "values": [{"measurement": "antibiotic potency against B subtilis", "setting": "Bacillus subtilus 168", "result": "submicromolar"}, {"measurement": "antibiotic potency against Staph aureus strains", "setting": "Staph aureus strains", "result": "submicromolar"}]}, {"substance": "YM-266183", "values": [{"measurement": "antibiotic potency against B subtilis", "setting": "Bacillus subtilus 168", "result": "submicromolar"}, {"measurement": "antibiotic potency against Staph aureus strains", "setting": "Staph aureus strains", "result": "submicromolar"}]}]}
